Data from patent US20060183043A1, “Electrophotographic photoreceptor containing pyridine-substituted asymmetric naphthalenetetracarboxylic acid diimide derivatives and electrophotographic imaging apparatus” (Samsung Electronics Co., Ltd., priority 2005, published 2006).

Assay: Solubility test (amount of organic solvent needed to completely dissolve 1 g of compound)
Type: physicochemical
Details: 1 g compound, room temperature, solvent added drop by drop with stirring
Protocol: 1 g of a compound to be tested was poured into a test tube with stirring at room temperature and solvents listed in Table 1 were slowly added drop by drop. The amounts of the solvents required to completely dissolve 1 g of the tested compound were measured.

Structure (SMILES)	Amount of solvent required to completely dissolve 1 g of the tested compound: Acetone	Amount of solvent required to completely dissolve 1 g of the tested compound: Chloroform	Amount of solvent required to completely dissolve 1 g of the tested compound: Methylene chloride	Amount of solvent required to completely dissolve 1 g of the tested compound: Tetrahydrofuran
CCc1ccc(C)nc1N1C(=O)c2ccc3c4c(ccc(c24)C1=O)C(=O)N(c1ccccc1)C3=O [Compound (1)]	130 g	5.3 g	6.5 g	5.8 g
CCc1ccc(C)nc1N1C(=O)c2ccc3c4c(ccc(c24)C1=O)C(=O)N(c1nc(C)ccc1CC)C3=O [Compound (40)]	282 g	8.6 g	10.2 g	9.7 g
